# Data as given in patent US5444052A, “Amphotericin B composition with enhanced fungal activity” (Temple University of the Commonwealth System of Higher …, priority 1993, dated 1995).
# Like-named read-outs stand apart in the source and are kept apart here.
# What was measured:
# C. neoformans = assay: Checkerboard minimum inhibitory concentration and synergy test (microtiter plate and agar plate analysis) on C. neoformans; type: cell-based, Cryptococcus neoformans; settings: for synergistic effect of DDG isomers on antifungal effect of amphotericin B / MIC: 24 h; for synergistic effect of DDG isomers on antifungal effect of amphotericin B: 37° C. (FIG. 11); for Fold MIC decrease: added compound with other compound at 1/2 MIC vs alone; for 1/2 MIC: half of MIC, concentration used in the combination; for MIC: Cryptococcus neoformans
# human cells = settings: cited from earlier work
# [1] = cited from earlier work
# C. albicans = assay: Checkerboard minimum inhibitory concentration and synergy test (microtiter plate and agar plate analysis) on Candida albicans; type: cell-based; settings: for Fold MIC decrease: added compound with other compound at 1/2 MIC vs alone; for 1/2 MIC: half of MIC, concentration used in the combination; for MIC: Candida albicans, 24 h
# erythrocytes = settings: by binding to cholesterol in the cell membrane, causing anemia; cited from earlier work
# [2] = intravenous, 1 mg/kg, cited from earlier work
# [3] = tested on: bacteria, rickettsiae, and viruses; settings: cited from earlier work
# laboratory animals = settings: fed in very high doses; cited from earlier work
# phagocytes = settings: cited from earlier work
# neurons = settings: cited from earlier work
# mice = settings: cited from earlier work
# [4] = 25° C., agar plate, compound alone
# [5] = 25° C., microtiter plate, compound alone
# [6] = 37° C., agar plate, compound alone
# [7] = 37° C., microtiter plate, compound alone
# [8] = 25° C., agar plate, compound alone, read-out: MIC
# [9] = 25° C., microtiter plate, compound alone, read-out: MIC
# [10] = 37° C., agar plate, compound alone, read-out: MIC
# [11] = 37° C., microtiter plate, compound alone, read-out: MIC
compound,measurement,setting,value
"CCCCCCCCCCCCOC(CO)CO [2-DDG, 2-O-dodecylglycerol]",synergistic effect of DDG isomers on antifungal effect of amphotericin B,C. neoformans,synergistic effect
Nc1nc(=O)[nH]cc1F [Fluorocytosine],toxicity to human cells,human cells,toxic to human cells
"C[C@@H]1[C@H](O)[C@@H](C)/C=C/C=C/C=C/C=C/C=C/C=C/C=C/[C@H](O[C@@H]2O[C@H](C)[C@@H](O)[C@H](N)[C@@H]2O)C[C@@H]2O[C@](O)(C[C@@H](O)C[C@@H](O)[C@H](O)CC[C@@H](O)C[C@@H](O)CC(=O)O[C@H]1C)C[C@H](O)[C@H]2C(=O)O [amphotericin B, [1R-(1R*,3S*, 5R*,6R*,9R*, 11R*,15S*,16R*,17R*,18S*,19E,21E,23E,25E,27E,29E,31E,33R*, 35S*,36R*,37S,)]-33-[(3-amino-3,6-dideoxy-β-D-mannopyranosyl)oxy]1,3,5,6,9,11,17,37-octahydroxy-15,16,18-trimethyl-13-oxo-14,39-dioxabicyclo-[33.3.1]nonatriaconta-19,21,23,25,27,29,31-heptaene-36-carboxylic acid]",solubility in water,[1]; crystalline,insoluble in water
same,Fold MIC decrease,"C. albicans; 25° C., agar plate",72
same,1/2 MIC,"C. albicans; 25° C., agar plate",1.13 µg/mL
same,Fold MIC decrease,"C. albicans; 25° C., microtiter plate",64
same,1/2 MIC,"C. albicans; 25° C., microtiter plate",1 µg/mL
same,Fold MIC decrease,"C. albicans; 37° C., agar plate",10.6
same,1/2 MIC,"C. albicans; 37° C., agar plate",1 µg/mL
same,Fold MIC decrease,"C. albicans; 37° C., microtiter plate",5.3
same,1/2 MIC,"C. albicans; 37° C., microtiter plate",0.5 µg/mL
same,MIC,C. albicans; [4],2.25 µg/mL
same,MIC,C. albicans; [5],2 µg/mL
same,MIC,C. albicans; [6],2 µg/mL
same,MIC,C. albicans; [7],1 µg/mL
same,MIC,"C. albicans; read-out: Resulting MIC of added compound, 25° C., agar plate, in presence of the other compound at 1/2 MIC (rac-1-DDG 10 or Amph. B 1.13 μg/ml)",0.0313 µg/mL
same,MIC,"C. albicans; read-out: Resulting MIC of added compound, 25° C., microtiter plate, in presence of the other compound at 1/2 MIC (rac-1-DDG 5 or Amph. B 1 μg/ml)",0.0313 µg/mL
same,MIC,"C. albicans; read-out: Resulting MIC of added compound, 37° C., agar plate, in presence of the other compound at 1/2 MIC (rac-1-DDG 7.5 or Amph. B 1 μg/ml)",0.188 µg/mL
same,MIC,"C. albicans; read-out: Resulting MIC of added compound, 37° C., microtiter plate, in presence of the other compound at 1/2 MIC (rac-1-DDG 7.5 or Amph. B 0.5 μg/ml)",0.188 µg/mL
same,damage to erythrocytes,erythrocytes,damages erythrocytes
same,peak serum concentrations,[2]; by end of infusion,2-3 micrograms/ml
same,serum concentration,[2]; for up to 24 hours after infusion,above 0.5 micrograms/ml
same,"effect on bacteria, rickettsiae, and viruses",[3],no effect
same,Fold MIC decrease,"C. neoformans; 25° C., agar plate",72
same,1/2 MIC,"C. neoformans; 25° C., agar plate",1.13 µg/mL
same,Fold MIC decrease,"C. neoformans; 25° C., microtiter plate",48
same,1/2 MIC,"C. neoformans; 25° C., microtiter plate",1.12 µg/mL
same,1/2 MIC,"C. neoformans; 25° C., microtiter plate, listed as Amph. B",1.13 µg/mL
same,Fold MIC decrease,"C. neoformans; 37° C., agar plate",80
same,1/2 MIC,"C. neoformans; 37° C., agar plate",1.25 µg/mL
same,Fold MIC decrease,"C. neoformans; 37° C., microtiter plate",12.7
same,1/2 MIC,"C. neoformans; 37° C., microtiter plate",0.75 µg/mL
same,MIC,C. neoformans; [4],2.25 µg/mL
same,MIC,C. neoformans; [5],2.25 µg/mL
same,MIC,C. neoformans; [6],2.5 µg/mL
same,MIC,C. neoformans; [7],1.5 µg/mL
same,MIC,"C. neoformans; read-out: Resulting MIC of added compound, 25° C., 24 h, microtiter plate, in presence of the other compound at 1/2 MIC (rac-1-DDG 7.5 or Amph. B 1.13 μg/ml)",0.047 µg/mL
same,MIC,"C. neoformans; read-out: Resulting MIC of added compound, 25° C., agar plate, in presence of the other compound at 1/2 MIC (rac-1-DDG 5 or Amph. B 1.13 μg/ml)",0.0313 µg/mL
same,MIC,"C. neoformans; read-out: Resulting MIC of added compound, 37° C., agar plate, in presence of the other compound at 1/2 MIC (rac-1-DDG 10 or Amph. B 1.25 μg/ml)",0.0313 µg/mL
same,MIC,"C. neoformans; read-out: Resulting MIC of added compound, 37° C., microtiter plate, in presence of the other compound at 1/2 MIC (rac-1-DDG 7.5 or Amph. B 0.75 μg/ml)",0.118 µg/mL
"CCCCCCCCCCCCOC[C@H](O)CO [Sn-3-DDG, sn-3-O-dodecylglycerol]",synergistic effect of DDG isomers on antifungal effect of amphotericin B,C. neoformans,synergistic effect
"CCCCCCCCCCCCOCC(O)CO (racemic) [rac-1-DDG, rac-1-O-dodecylglycerol]",solubility in water,[1],relatively good solubility in water
same,Fold MIC decrease,"C. albicans; 25° C., agar plate",80
same,1/2 MIC,"C. albicans; 25° C., agar plate",10 µg/mL
same,Fold MIC decrease,"C. albicans; 25° C., microtiter plate",36
same,1/2 MIC,"C. albicans; 25° C., microtiter plate",5 µg/mL
same,Fold MIC decrease,"C. albicans; 37° C., agar plate",40
same,1/2 MIC,"C. albicans; 37° C., agar plate",7.5 µg/mL
same,Fold MIC decrease,"C. albicans; 37° C., microtiter plate",40
same,1/2 MIC,"C. albicans; 37° C., microtiter plate",7.5 µg/mL
same,MIC,C. albicans; [8],20 µg/mL
same,MIC,C. albicans; [9],10 µg/mL
same,MIC,"C. albicans; 25° C., agar plate, in presence of the other compound at 1/2 MIC (rac-1-DDG 10 or Amph. B 1.13 μg/ml), read-out: Resulting MIC of added compound",0.25 µg/mL
same,MIC,"C. albicans; 25° C., microtiter plate, in presence of the other compound at 1/2 MIC (rac-1-DDG 5 or Amph. B 1 μg/ml), read-out: Resulting MIC of added compound",0.281 µg/mL
same,MIC,C. albicans; [10],15 µg/mL
same,MIC,C. albicans; [11],15 µg/mL
same,MIC,"C. albicans; 37° C., agar plate, in presence of the other compound at 1/2 MIC (rac-1-DDG 7.5 or Amph. B 1 μg/ml), read-out: Resulting MIC of added compound",0.375 µg/mL
same,MIC,"C. albicans; 37° C., microtiter plate, in presence of the other compound at 1/2 MIC (rac-1-DDG 7.5 or Amph. B 0.5 μg/ml), read-out: Resulting MIC of added compound",0.375 µg/mL
same,toxicity,laboratory animals,does not appear to be toxic
same,stimulation of phagocytes to ingest foreign substances,phagocytes,stimulated
same,Fold MIC decrease,"C. neoformans; 25° C., agar plate",80
same,1/2 MIC,"C. neoformans; 25° C., agar plate",5 µg/mL
same,Fold MIC decrease,"C. neoformans; 25° C., microtiter plate",120
same,1/2 MIC,"C. neoformans; 25° C., microtiter plate",7.5 µg/mL
same,Fold MIC decrease,"C. neoformans; 37° C., agar plate",160
same,1/2 MIC,"C. neoformans; 37° C., agar plate",10 µg/mL
same,Fold MIC decrease,"C. neoformans; 37° C., microtiter plate",50
same,1/2 MIC,"C. neoformans; 37° C., microtiter plate",7.5 µg/mL
same,MIC,C. neoformans; [8],10 µg/mL
same,MIC,C. neoformans; [9],15 µg/mL
same,MIC,"C. neoformans; 25° C., microtiter plate, in presence of the other compound at 1/2 MIC (rac-1-DDG 7.5 or Amph. B 1.13 μg/ml), read-out: Resulting MIC of added compound",0.125 µg/mL
same,MIC,"C. neoformans; 25° C., agar plate, in presence of the other compound at 1/2 MIC (rac-1-DDG 5 or Amph. B 1.13 μg/ml), read-out: Resulting MIC of added compound",0.125 µg/mL
same,MIC,C. neoformans; [10],20 µg/mL
same,MIC,C. neoformans; [11],15 µg/mL
same,MIC,"C. neoformans; 37° C., agar plate, in presence of the other compound at 1/2 MIC (rac-1-DDG 10 or Amph. B 1.25 μg/ml), read-out: Resulting MIC of added compound",0.125 µg/mL
same,MIC,"C. neoformans; 37° C., microtiter plate, in presence of the other compound at 1/2 MIC (rac-1-DDG 7.5 or Amph. B 0.75 μg/ml), read-out: Resulting MIC of added compound",0.3 µg/mL
same,neuronal growth,neurons,promote neuronal growth
same,organ weights or body weights,"mice; 1 g/kg/day in feed, 4 weeks",did not significantly alter the organ weights or body weights of mice
same,linoleolyl moieties of total lipids,"mice; during feeding, 1 g/kg/day",concomitant decrease
same,saturated acyl moieties of total lipids,"mice; during feeding, 1 g/kg/day",marked increase
same,lipids of organs and tissues,mice; four weeks after removal of compound from diet,close resemblance to those of a control group
"CCCCCCCCCCCCOC[C@@H](O)CO [sn-1-DDG, sn-1-O-dodecylglycerol]",synergistic effect of DDG isomers on antifungal effect of amphotericin B,C. neoformans,synergistic effect
